From patent US20230348398A1 (Hoffmann-La Roche Inc., priority 2020, published 2023) come the findings set out here.

Sequence of human cGAS (residues 161-522) (Q8N884 161-522): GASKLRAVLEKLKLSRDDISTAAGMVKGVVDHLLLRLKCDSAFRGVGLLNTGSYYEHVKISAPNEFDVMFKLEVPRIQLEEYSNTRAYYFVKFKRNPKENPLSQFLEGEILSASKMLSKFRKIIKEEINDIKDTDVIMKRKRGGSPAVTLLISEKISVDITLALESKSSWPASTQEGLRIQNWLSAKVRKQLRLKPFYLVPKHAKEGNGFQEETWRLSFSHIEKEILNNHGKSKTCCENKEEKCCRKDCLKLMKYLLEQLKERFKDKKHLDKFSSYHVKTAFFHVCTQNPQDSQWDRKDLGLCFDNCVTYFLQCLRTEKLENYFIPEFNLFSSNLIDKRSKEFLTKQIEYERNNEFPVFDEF

The target of this experiment is human cGAS (residues 161-522) (Homo sapiens (Human), UniProt Q8N884). As to the kind of experiment: Malachite Green assay to measure cGAS activity (coupled enzymatic assay, phosphate detection). The experiment is classed as biochemical. The following applies: recombinant human cGAS (residues 161-522) 25 nM, 80 μM GTP, 100 nM ISD, 4 hour at RT, absorbance 620 nm. The protocol:
Malachite Green Assay to Measure cGAS Activity Compounds were tested for cGAS inhibition in a coupled enzymatic assay based on Phosphate detection by Malachite Green. Final assay conditions were 20 mM TRIS pH 7.5 (Applichem), 5 mM MgCl2 (Sigma) and 0.01% BSA (Sigma) supplemented with […] (Sigma), 80 μM GTP (Sigma) and 100 nM Interferon Stimulating DNA (ISD) (Microsynth). Recombinantly expressed purified human cGAS (residues 161-522) was used at 25 nM. All compounds were prepared as 10 mM stock solutions in DMSO and a 16 pt dilution series in DMSO with a dilution factor of 2.5 was prepared. 1 μL of DMSO dilution series was transferred to 32.3 μL reaction buffer, mixed by pipetting up/down, spun for 1 minute at 3000 rpm and was visually inspected for precipitation. 5 μL of 3-fold enzyme stock solution were transferred to an empty 384-well Black/Clear Flat Bottom Polystyrene NBS (Corning) rows 3-24. Rows 1-2 were filled with assay buffer. Plates were spun 10 seconds at 1000 rpm (164×g). 5 μL of compound intermediate dilution was added and mixed by pipetting up/down to rows 3-24. Rows 1-2 were filled with 3.1% DMSO assay buffer. Plates were spun 10 seconds at 1000 rpm (164×g). 5 μL 3-fold Nucleotide/DNA mix was added to all wells to start the reaction. Plates were spun 10 seconds at 1000 rpm (164×g) and incubated for 4 hour at room temperature (RT) in the dark. 5 μL 4 U/mL PPase (Sigma) were added to all wells. Plates spun 10 seconds at 1000 rpm (164×g). 10 μL BioMol green Solution (Enzo Life Sciences) was added to all wells. Plates spun 10 seconds at 1000 rpm (164×g) and incubated 30 minutes at RT in the dark. Absorbance data was collected 620 nm on an EnVision Multilable Reader (Perkin Elmer) and the following measurement settings were used: excitation filter photometric was 620 nm; excitation from the top; measurement height was 1 mm; number of flashes was 30; number of flashes integrated was 1. All plates are checked for abnormalities and outliers in the Blank Control (no protein, row 1) and the Neutral Control (no compound, row 2) are excluded using the 3*SD rule. Data was normalized to 0 and 100% by Blank and Neutral Control and each curve was fitted and judged using the 4 parameter logistic equation to determine the IC50 for cGAS inhibition. Table 1 provides IC50 values (μM) for cGAS inhibition obtained for particular examples of the present invention as measured by the above-described assay.
Turning to `O=C(O)c1cc(-c2ccc(C3CC3)cc2Cl)cc2[nH]cnc12` [Example 1, 6-(2-Chloro-4-cyclopropylphenyl)-1-benzimidazole-4-carboxylic acid], the IC50 was found to be 4680 nM. In the case of `Cc1cc(Cl)c(-c2cc(C(=O)O)c3nc[nH]c3c2)cc1F` [Example 2, 6-(2-Chloro-5-fluoro-4-methylphenyl)-1H-benzo[d]imidazole-4-carboxylic acid] it was 540 nM; in that of `Cc1ccc(-c2cc(C(=O)O)c3nc[nH]c3c2)c(Cl)c1` [Example 3, 6-(2-Chloro-4-methylphenyl)-1H-benzo[d]imidazole-4-carboxylic acid], 550 nM; in that of `CCOc1ccc(-c2cc(C(=O)O)c3nc[nH]c3c2)c(Cl)c1` [Example 4, 6-(2-Chloro-4-ethoxyphenyl)-1H-benzo[d]imidazole-4-carboxylic acid], 4370 nM. With `O=C(O)c1cc(-c2ccc(C(F)(F)F)cc2Cl)cc2[nH]cnc12` [Example 5, 6-(2-Chloro-4-(trifluoromethyl)phenyl)-1H-benzo[d]imidazole-4-carboxylic acid], the IC50 came out at 3260 nM. Regarding `Cc1cc(Cl)ccc1-c1cc(C(=O)O)c2nc[nH]c2c1` [Example 6, 6-(4-Chloro-2-methylphenyl)-1H-benzo[d]imidazole-4-carboxylic acid], the IC50 came out at 2080 nM.

Turning to `Cc1ccc(-c2cc(C(=O)O)c3nc(CN4CCN5C(=O)CCC5C4)[nH]c3c2)c(Cl)c1` (stereo not shown) [Example 7, 6-(2-Chloro-4-methylphenyl)-2-[(6-oxo-1,3,4,7,8,8a-hexahydropyrrolo[1,2-a]pyrazin-2-yl)methyl]-1H-benzimidazole-4-carboxylic acid], the IC50 worked out at 260 nM.

Regarding `Cc1ccc(-c2cc(C(=O)O)c3nc(CN4CCN(CC(F)(F)F)CC4)[nH]c3c2)c(Cl)c1` [Example 8, 6-(2-Chloro-4-methylphenyl)-2-((4-(2,2,2-trifluoroethyl)piperazin-1-yl)methyl)-1H-benzo[d]imidazole-4-carboxylic acid], the IC50 is 590 nM. As for `Cc1ccc(-c2cc(C(=O)O)c3nc(CN4CCN(C5CC5)CC4)[nH]c3c2)c(Cl)c1` [Example 9, 6-(2-Chloro-4-methylphenyl)-2-[(4-cyclopropylpiperazin-1-yl)methyl]-1H-benzimidazole-4-carboxylic acid], the figure is 380 nM; as for `Cc1ccc(-c2cc(C(=O)O)c3nc(CN4CCN(Cc5ccccc5)C(=O)C4)[nH]c3c2)c(Cl)c1` [Example 10, 2-[(4-Benzyl-3-oxopiperazin-1-yl)methyl]-6-(2-chloro-4-methylphenyl)-1H-benzimidazole-4-carboxylic acid], 510 nM.

Take `Cc1ccc(-c2cc(C(=O)O)c3nc(CN4CCNC(C(F)(F)F)C4)[nH]c3c2)c(Cl)c1` (stereo not shown) [Example 11, 6-(2-Chloro-4-methylphenyl)-2-[[3-(trifluoromethyl)piperazin-1-yl]methyl]-1H-benzimidazole-4-carboxylic acid]: the IC50 worked out at 600 nM.

`Cc1ccc(-c2cc(C(=O)O)c3nc(CN4CCN(C)CC4=O)[nH]c3c2)c(Cl)c1` [Example 12, 6-(2-Chloro-4-methylphenyl)-2-[(4-methyl-2-oxopiperazin-1-yl)methyl]-1H-benzimidazole-4-carboxylic acid]: the IC50 was found to be 1140 nM. In the case of `Cc1ccc(-c2cc(C(=O)O)c3nc(CO)[nH]c3c2)c(Cl)c1` [Example 13, 6-(2-Chloro-4-methylphenyl)-2-(hydroxymethyl)-1H-benzimidazole-4-carboxylic acid] it was 550 nM. As for `Cc1ccc(-c2cc(C(=O)O)c3nc(Nc4ccccc4)[nH]c3c2)c(Cl)c1` [Example 14, 6-(2-Chloro-4-methylphenyl)-2-(phenylamino)-1H-benzo[d]imidazole-4-carboxylic acid], the figure is 1160 nM. In the case of `Cc1ccc(-c2cc(C(=O)O)c3nc(CN4CCC(F)(F)CC4)[nH]c3c2)c(Cl)c1` [Example 15, 6-(2-Chloro-4-methylphenyl)-2-[(4,4-difluoropiperidin-1-yl)methyl]-1H-benzimidazole-4-carboxylic acid] it was 260 nM. For `CC(=O)N1CCN(Cc2nc3c(C(=O)O)cc(-c4ccc(C)cc4Cl)cc3[nH]2)CC1` [Example 16, 2-[(4-Acetylpiperazin-1-yl)methyl]-6-(2-chloro-4-methylphenyl)-1H-benzimidazole-4-carboxylic acid], the IC50 was 1510 nM.

`Cc1ccc(-c2cc(C(=O)O)c3nc(CN(C)c4ccccc4)[nH]c3c2)c(Cl)c1` [Example 17, 6-(2-Chloro-4-methylphenyl)-2-[(N-methylanilino)methyl]-1H-benzimidazole-4-carboxylic acid]: the IC50 stood at 1230 nM. As for `Cc1ccc(-c2cc(C(=O)O)c3nc(CN4CCN(Cc5ccccc5)CC4)[nH]c3c2)c(Cl)c1` [Example 18, 2-[(4-Benzylpiperazin-1-yl)methyl]-6-(2-chloro-4-methylphenyl)-1H-benzimidazole-4-carboxylic acid], the figure is 140 nM; as for `Cc1ccc(-c2cc(C(=O)O)c3nc(CN4CCN(c5ccccc5)CC4)[nH]c3c2)c(Cl)c1` [Example 19, 6-(2-Chloro-4-methylphenyl)-2-[(4-phenylpiperazin-1-yl)methyl]-1H-benzimidazole-4-carboxylic acid], 1250 nM; as for `Cc1ccc(-c2cc(C(=O)O)c3nc(CN4CCNC(=O)C4)[nH]c3c2)c(Cl)c1` [Example 20, 6-(2-Chloro-4-methylphenyl)-2-[(3-oxopiperazin-1-yl)methyl]-1H-benzimidazole-4-carboxylic acid], 590 nM. In the case of `Cc1ccc(-c2cc(C(=O)O)c3nc(CN4CCC(O)CC4)[nH]c3c2)c(Cl)c1` [Example 21, 6-(2-Chloro-4-methylphenyl)-2-[(4-hydroxypiperidin-1-yl)methyl]-1H-benzimidazole-4-carboxylic acid] it was 410 nM; in that of `Cc1ccc(-c2cc(C(=O)O)c3nc(CN4CCN(C)CC4)[nH]c3c2)c(Cl)c1` [Example 22, 6-(2-Chloro-4-methylphenyl)-2-[(4-methylpiperazin-1-yl)methyl]-1-benzimidazole-4-carboxylic acid], 130 nM. In the case of `CCN(CC)Cc1nc2c(C(=O)O)cc(-c3ccc(C)cc3Cl)cc2[nH]1` [Example 23, 6-(2-Chloro-4-methylphenyl)-2-(diethylaminomethyl)-1-benzimidazole-4-carboxylic acid] it was 480 nM; in that of `Cc1ccc(-c2cc(C(=O)O)c3nc(CN4CCCCC4)[nH]c3c2)c(Cl)c1` [Example 24, 6-(2-Chloro-4-methylphenyl)-2-(piperidin-1-ylmethyl)-1H-benzimidazole-4-carboxylic acid], 360 nM. `Cc1ccc(-c2cc(C(=O)O)c3nc(CNc4ccccc4)[nH]c3c2)c(Cl)c1` [Example 25, 2-(Anilinomethyl)-6-(2-chloro-4-methylphenyl)-1H-benzimidazole-4-carboxylic acid]: the IC50 amounted to 690 nM. As for `Cc1ccc(-c2cc(C(=O)O)c3nc(Cc4ccccc4)[nH]c3c2)c(Cl)c1` [Example 26, 2-Benzyl-6-(2-chloro-4-methylphenyl)-1H-benzo[d]imidazole-4-carboxylic acid], the figure is 1020 nM; as for `Cc1ccc(-c2cc(C(=O)O)c3nc(Cc4ccc(Cl)cc4)[nH]c3c2)c(Cl)c1` [Example 27, 6-(2-Chloro-4-methylphenyl)-2-[(4-chlorophenyl)methyl]-1H-benzimidazole-4-carboxylic acid], 1480 nM. As for `Cc1ccc(-c2cc(C(=O)O)c3nc(CN4CCOCC4)[nH]c3c2)c(Cl)c1` [Example 28, 6-(2-Chloro-4-methylphenyl)-2-(morpholin-4-ylmethyl)-1H-benzimidazole-4-carboxylic acid], the figure is 350 nM.

For the compound `Cc1ccc(-c2cc(C(=O)O)c3nc(CN(C)C)[nH]c3c2)c(Cl)c1` [Example 29, 6-(2-Chloro-4-methylphenyl)-2-[(dimethylamino)methyl]-1H-benzimidazole-4-carboxylic acid], the IC50 is 590 nM. In the case of `Cc1ccc(-c2cc(C(=O)O)c3nc(C(F)(F)F)[nH]c3c2)c(Cl)c1` [Example 30, 6-(2-Chloro-4-methylphenyl)-2-(trifluoromethyl)-1H-benzimidazole-4-carboxylic acid] it was 3020 nM; in that of `Cc1ccc(-c2cc(C(=O)O)c3nc(NCc4ccccc4)[nH]c3c2)c(Cl)c1` [Example 31, 2-(Benzylamino)-6-(2-chloro-4-methylphenyl)-1H-benzo[d]imidazole-4-carboxylic acid], 840 nM.
